Data taken from US8088951B2, “Epigenetic mechanisms re-establish access to long-term memory after neuronal loss” (Massachusetts Institute of Technology, priority 2006, dated 2012).

How the values were obtained:
[1] = tested on: c-fos; test: c-fos positive cells after fear conditioning training; format: in vivo, mice; details: compared to saline treated group
Description: (§1) HDAC inhibitors regulate neuronal activity and neurogenesis in dentate gyrus. […] Thus, activity induced c-fos expression may also be used to evaluate the effect of HDAC inhibitors on hippocampus dependent learning. FIG. 17d is a bar graph depicting the significant enhancement by SAHA.

[2] = tested on: C57BL/6J mice; test: Contextual fear conditioning (associative learning) in wild type mice; format: in vivo; details: for associative learning, contextual fear conditioning paradigm: wildtype mice, chronic treatment for 10-21 days
Description: Learning tests: All behavioral testing is described in Fischer et al. (3).
Mechanism underlying EE. Other than a few genes involved in synaptic function, relatively little is known about the mechanism underlying EE (12-14). Since histone acetylation, an epigenetic mechanism regulating gene expression via chromatin remodeling, has recently been implicated in synaptic plasticity and learning behavior (15-18), the induction of a transcriptional program by EE that leads to activation of plasticity genes was evaluated. Wild type mice were subjected to EE and hippocampal and cortical brain lysates were obtained 3, 24 h or 2 weeks later (n=3/group) by acid extraction and probed with antibodies detecting histone-tail modification that indicate active chromatin. Increases in hippocampal H3 (K-9, K14) and H4 (K-5) and in cortical H3 (K-9) and H4 (K-5) acetylation were observed. […] No changes in H4 acetylation were observed when the Ac-H4 (K,8,12,16) antibody was used, which is likely due to the fact that H4-K16 is a marker of condensed chromatin. EE induced hippocampal and cortical histone 3 (H3) and histone 4 (H4) acetylation and […] as soon as 3 hours after treatment (FIGS. 3a, b). […] To investigate whether inhibition of HDACs mimics the effects of EE, SB was administered daily [ip] into wild type mice for 4 weeks (FIG. 3c). […] Two days after the last injection mice were trained in the fear conditioning paradigm. […] Locomotor activity or basal anxiety was not altered in SB-injected mice (FIG. 8c).
The effect of sodiumbutyrate injection on learning, basal anxiety, explorative behavior and brain plasticity. C57BL/6J mice were subjected to fear conditioning and injected intraperitoneally [ip] with 1.2 g/kg sodiumbutyrate (SB, n=8) or saline (vehicle; n=8) immediately afterwards. […] C57BL/6J mice were implanted with microcannulae into the lateral brain ventricles (icv) and injected with either 100 ng SB, 50 ng TSA or vehicle immediately after fear conditioning (n=8/group). […] C57BL/6J were daily injected [ip] with SB or saline (n=8/group) for 4 weeks before all mice were subjected to the elevated plus maze and open field test. […] Immunoblots were quantified relative to the optical density of the vehicle-group (set to 1). […] The analysis was performed as described under FIG. 1g.
(§2) The effects of SAHA and MS-275, relative to sodium butyrate (SB), on the hippocampus dependent associative learning in wildtype mice.
Mice were injected 10 days with either 5 mg/kg of MS275 or 25 mg/kg of UW_WT-I—06 or UW_WT-I—05 before training and memory tests as described above. […] Andorfer, C. et al. Cell-cycle reentry and cell death in transgenic mice expressing nonmutant human tau isoforms. J neurosci 25, 5446-5454 (2005). • 2. Santacruz, K. et al. Tau suppression in a neurodegenerative mouse model improves memory function. Science 309, 476-481 (2005). • 3. Fischer, A., Sananbenesi, F., Pang, P. T., Lu, B. & Tsai, L. H. Opposing roles of transient and prolonged expression of p25 in synaptic plasticity and hippocampus-dependent memory. Neuron 48, 825-838 (2005). • 4. Cruz, J. C. & Tsai, L. H. Jekyll and Hyde kinase: roles for Cdk5 in brain development and disease. Curr Opin Neurobiol. 14, 390-394 (2004). • 5. Cruz, J. C., Tseng, H. C., Goldman, J. A., Shih, H. & Tsai, L. H. Aberrant Cdk5 activation by p25 triggers pathological events leading to neurodegeneration and neurofibrillary tangles. Neuron 40, 471-83 (2003). • 6. Nithianantharajah, J. & Hannan, A. J. Enriched environments, experience-dependent plasticity and disorders of the nervous system. Nat Rev Neurosci 7, 697-709 (2006). • 7. Kim, J. J. & Fanselow, M. S. Modality-specific retrograde amnesia of fear. Science 256, 675-7 (1992). • 8. Gilmore, E. C. & Herrup, K. Neocortical cell migration: GABAergic neurons and cells in layers I and VI move in a cyclin-dependent kinase 5-independent manner. J Neurosci 21, 9690-700 (2001). • 9. […]

[3] = tested on: dentate gyrus; test: Neurogenesis in dentate gyrus (BrdU, DCX); set-up: species or system mice; details: mouse, in vivo
Description: as §1

[4] = tested on: lys9lys 14 on histone 3 and lys5 on histone 4; test: Histone acetylation in brain lysates of treated mice; format: in vivo; details: compared to saline treated mice
Method: Immunoblotting and staining: Lysates for immunoblotting were prepared as described by Fischer et al. (3). To isolate histones, brain tissue was homogenized in TX-buffer (50 mM Tris HCL, 150 mM NACL, 2 mM EDTA, 1% Triton-100) and incubated at 4° C. for 15 min prior to centrifugation at 200 rpm for 10 min. After a wash-step in TX-buffer the pellet was dissolved in TX-buffer containing 0.2M HCl and incubated on ice for 30 min, before a second centrifugation at 10000 rpm for 10 min. The supernatant was either dialysed or directly used for immunoblotting. Antibodies were used in 1:1000 concentrations. All antibodies detecting histones and anti-PSD-95 were form Upstate (Lake Placid, N.Y.). Anti-synaptophysin (SVP38) was from Sigma. Anti-neuronal nuclei (neuN) and anti-growth associated protein (Gap43) were from Chemicon (Temecula, Calif.) and anti-N-cadherin, anti-β-catenin were from Santa Cruz (Santa Cruz, Calif.). Immunostaining was performed as described by Fischer et al. (3). Antibodies mentioned above were used in a 1:500 dilution. Anti-MAP-2 antibody (Sigma) was used in a 1:200 dilution.
as §2

Structure (SMILES)	number of c-fos positive cells [1]	associative learning, contextual fear conditioning paradigm [2]	BrdU positive cells in the subgranule zone of the dentate gyrus [3]	DCX (marker for newly generated neurons) labeled cells in dentate gyrus [3]	acetylation of lys9lys 14 on histone 3 and lys5 on histone 4 in brain lysates [4]	freezing behavior during the memory test ([2]; icv 100 ng SB or 50 ng TSA immediately after fear conditioning, test 24 h later, P<0.0001)	associative learning ([2]; wild type mice, intraperitoneal [ip] and intracerebroventricular [icv] injections)
O=C(CCCCCCC(=O)Nc1ccccc1)NO [SAHA, suberoylanilide hydroxamic acid]	higher number of c-fos positive cells	more potent than SB in facilitating associative learning	increased BrdU positive cells	labeled more cells	increased acetylation of lys9lys 14 on histone 3 and lys5 on histone 4	–	–
Nc1ccccc1NC(=O)c1ccc(CNC(=O)OCc2cccnc2)cc1 [MS-275]	lower number of c-fos positive cells	does not facilitate associative learning	–	not	increased acetylation of lys9lys 14 on histone 3 and lys5 on histone 4	–	–
CC(/C=C/C(=O)NO)=C\[C@@H](C)C(=O)c1ccc(N(C)C)cc1 [TSA, trichostatin A]	–	–	–	–	–	more freezing behavior than vehicle injected mice	significantly facilitated associative learning
